In patent US7262301B1, “Zinc-chelating ratiometric fluorescent probes and related methods” (Northwestern University, priority 2003, dated 2007):
≈ marks a conversion by molar mass, not a printed value. Read-outs that look alike come from different tables or passages of the source.

How the values were obtained:
[1] = 10 μM ligand, 1 μM Zn(II), pH 7.20, 0.1 M ionic strength, 25° C.; prior art ligands, literature data; cited from earlier work
[2] = Binding constant determination: fluorescence intensity ratio (or UV absorbance) in Zn2+/EGTA buffered solutions
Protocol: FIG. 2. (A) Emission spectra of Zinbo-5 with the excitation at 356 nm in Zn^2+/EGTA buffered system (50 mM HEPES, pH 7.20, 0.1 M KNO3; 10 mM EGTA, 1-9 mM zinc sulfate) at 0, 0.14, 0.29, 0.66, 1.1, 1.8, 2.6, 4.0, 6.1, and 11 nM free Zn^2+, respectively. (B) Plots of the fluorescence intensity ratio between 395 nm and 443 nm (I443/I395) with a best curve for a dissociation constant of 2.1±0.1×10^−9.
FIG. 3. UV determination of dissociation constant, Kd: (A) Absorption ratio between at 340 nm and at 374 nm (Abs374/Abs340) in Zn^2+-buffered solution (50 mM HEPES, pH 7.20, 0.1 M KNO3; […], 1-9 mM zinc sulfate).
A series of HEPES (2-[4-(2-hydoroxyethyl)-1-piperazinyl]ethanesulfonic acid) buffer solutions (50 mM, pH 7.20, 0.1 M KNO3) containing various amounts of ZnSO4 (0˜9.5 mM) and 10 mM of EGTA (ethylenebis(oxyethylenenitrilo) tetraacetic acid) were prepared. The concentration of free Zn^2+ was calculated with [EGTA]total, [Zn^2+]total, and K′Zn-EGTA, the apparent binding constant at a given pH and ionic strength. […]
The ratio between 395 nm and 443 nm intensities in the emission spectrum of each solution was measured with the excitation wavelength at 356 nm and was fitted to the following equation (Eq. 2). […]

[3] = Calculated pZn values (-log[Zn]free) for a ligand/zinc solution; type: binding
Excerpt: […] […] The Zn^2+ affinity of Zinbo-5 is much higher than that of di(2-picolyl)amine (DPA), indicating—without limitation—that the phenolate oxygen and benoxazole nitrogen are likely chelating the metal as the third and fourth ligands.

[4] = Metal ion selectivity of fluorescence (ratio I443/I395) in biological buffers
Protocol: FIG. 4. Metal ion selectivity of Zinbo-5. Bars are a presentation of the fluorescence ratio I443/I395. Heavy metals (20 μM) and Na^+, K^+, Ca^2+, Mg^2+ (5 mM) were added to 1.5 μM Zinbo-5 in the presence of 10 μM EDTA.

[5] = tested on: mouse fibroblast LTK cell line; assay: Two-photon emission ratio imaging of fixed fibroblast cells; type: cell-based
Protocol: FIG. 5. Emission ratio images of fibroblast (LTK) cells treated with Zinbo-5. (A) Brightfield transmission image; (B) ratio image of the intensities at 445 nm and 402 nm; (C) ratio image following a 30 minute treatment with 10 μM zinc sulfate and 20 μM pyrithione at pH 7.4, 25° C., followed by wash with Zinbo-5 stock; (D) ratio image of the same field after a 15 minute treatment with 1 mM TPEN.
The Zinbo-5 probe was tested in the mouse fibroblast LTK cell line. Cells were fixed, treated with a saturated solution of Zinbo-5 and then imaged with two-photon excitation (TPE) laser scanning microscopy using on Zeiss 510 LSM (upright configuration). The excitation beam produced by the femtosecond pulsed Ti:sapphire laser (Tsunami, Spectra-Physics; 8 W Millennia pump) was tuned to 710 nm, (pumping power 6.5 W with 0.5 W entering the Zeiss AOM) was passed through an LSM 510 microscope with an HFT 650 dichroic (Zeiss) and focused onto coverslip adherent fibroblasts using a 63x oil-immersion objective (Zeiss). The NLO META scan head (Zeiss) allowed data collection in 10.7 nm windows centered at 445 nm and 402 nm.
Cells were imaged in the presence of Zinbo-5 to provide the contrast of unbound dye outside of the cells (FIG. 5). After imaging, the same field of cells was treated with 10 μM zinc sulfate and 20 μM pyrithione, a zinc-selective ionophore, resulting in an anticipated increase in the intracellular ratio of emissions from 445 nm and 402 nm (FIG. 5, d-f). Finally, the intracellular ratio was made equal to that of the surrounding unbound dye by treating the same field of view with TPEN (FIG. 5, g-i).
LTK cells were grown as previously published (Nasir, M. S., et al., JBIC (1999) 4:775-783). Cells grown on coverslips were fixed with 4% formaldehyde on ice for 20 minutes and washed with cold PBS before staining. […] Coverslips were attached to slides using Secure-Seal spacers (Molecular Probes) with the saturated staining solution in the spacer well. […]

[6] = Maximal water solubility (saturated staining solution); type: physicochemical; settings: PBS (saturated staining solution), PBS with DMSO stock, on ice
[7] = heavy metals 20 μM, 1.5 μM probe, 10 μM EDTA

Question: Which “Calculated pZn (-log[Zn]free)” value [1] does the source give for `O=C(O)CN(CCN(CC(=O)O)CC(=O)O)CC(=O)O` [EDTA] here?
Answer: 14.3

Question: With `O=C(O)c1cc(NCCN(Cc2ccccn2)Cc2ccccn2)ccc1-c1c2ccc(=O)cc-2oc2cc(O)ccc12` [ZnAF-1] as the compound, how does the “Calculated pZn (-log[Zn]free)” value [1] read?
Answer: 10.1

Question: For `COc1cc(O)c(-c2nc3c(CNCc4ccccn4)cccc3o2)cc1OC` [Zinbo-5, 2-(4,5-dimethoxy-2-hydroxyphenyl)-4-(2-pyridlmethyl)aminomethylbenzoxazole], which “Zn^2+ affinity compared with di(2-picolyl)amine (DPA)” value [2] is on record?
Answer: much higher

Question: What about the Kd ([2]; pH 7.20, fluorescence intensity ratio between 395 nm and 443 nm against log[Zn2+]free, read-out: apparent dissociation constant (Kd) for Zn^2+) of the same compound?
Answer: 2.2 ± 0.1 nM

Question: What about the “Calculated pZn (-log[Zn]free)” value ([3]; 10 μM ligand, 1 μM Zn(II), pH 7.20, 0.1 M ionic strength, 25° C., the patent's own probe) of the same compound?
Answer: 9.3

Question: What about the “pZn value (-log[Zn^2+])” value ([3]; aqueous solution containing 10 µM ligand and 1 µM zinc ion at pH 7.20 and 0.1 M ionic strength) of the same compound?
Answer: 9.3

Question: What about the “fluorescence response to Mn^2+, Co^2+, Ni^2+, Fe^+ and Cu^2+” value [4, 7] of the same compound?
Answer: quenched the fluorescence

Question: What about the “fluorescence response to Zn^2+ and Cd^2+” value [4, 7] of the same compound?
Answer: induced an emission shift

Question: And the “fluorescence response to Na^+, K^+, Ca^2+ and Mg^2+” value ([4]; metal concentrations as high as 5 mM)?
Answer: no fluorescent response

Question: What about the cell permeability [5] of the same compound?
Answer: cell permeable

Question: And the “average intracellular increase in the emission ratio (445 nm/402 nm)” value ([5]; LTK cells after 10 μM zinc sulfate and 20 μM pyrithione)?
Answer: ca. 15%

Question: And the solubility [6]?
Answer: 1.5 µM (≈ 0.587 µg/mL)

Question: Which “Calculated pZn (-log[Zn]free)” value [1] does the source give for `O=C(O)CN(CC(=O)O)CC(=O)O` [NTA] here?
Answer: 9.0

Question: With `O=C1OC2(c3ccccc31)c1cc(Cl)c(O)c(CN(Cc3ccccn3)Cc3ccccn3)c1Oc1c2cc(Cl)c(O)c1CN(Cc1ccccn1)Cc1ccccn1` [Zinpyr-1] as the compound, how does the “Calculated pZn (-log[Zn]free)” value [1] read?
Answer: 10.1

Question: What does the source list for `c1ccc(CN(CCN(Cc2ccccn2)Cc2ccccn2)Cc2ccccn2)nc1` [TPEN, N,N,N′,N′-tetrakis (2-pyridylmethyl) ethylenediamine, reference compound]?
Answer: decrease of the intracellular emission ratio ([5]; LTK cells stained with Zinbo-5, zinc loaded, then excess TPEN (1 mM, 15 minute)): 30%; Calculated pZn (-log[Zn]free) [1]: 16.0

Question: Which “Calculated pZn (-log[Zn]free)” value [1] does the source give for `Cc1ccc(S(=O)(=O)Nc2cc(OCC(=O)O)cc3ccc(C)nc23)cc1` [Zinquin acid] here?
Answer: 9.3

Question: For carbonic anhydrase, which “Calculated pZn (-log[Zn]free)” value [1] is on record?
Answer: 12.4

Question: With `O=C(O)CN(CCOCCOCCN(CC(=O)O)CC(=O)O)CC(=O)O` [EGTA, ethylenebis(oxyethylenenitrilo) tetraacetic acid] as the compound, how does the “Calculated pZn (-log[Zn]free)” value [1] read?
Answer: 9.5
